From ChEMBL document CHEMBL3272162, “Quinazolines and 1,4-benzodiazepines. 81. s-Triazolo[4,3-a][1,4]benzodiazepines by oxidative cyclization of hydrazones” (1977)

Columns and labels:
Assay type in all cases: functional
[1] = tested on: Mus musculus; assay: CNS activity in po dosed mouse assessed as antagonism against pentylenetetrazole-induced response
[2] = tested on: Mus musculus; assay: CNS activity in po dosed mouse assessed as antifighting activity by foot shock test
[3] = tested on: Mus musculus; assay: CNS activity in po dosed mouse by inclined screen test

SMILES | ED50 [1] | ED50 [2] | ED50 [3]
COC(=O)c1nnc2n1-c1ccc(Cl)cc1C(c1ccccc1)=NC2 | 0.9 mg/kg | 5 mg/kg | 40 mg/kg
[O-][N+]1=C(c2ccccc2)c2cc(Cl)ccc2-n2c(nnc2C(O)CO)C1 (configuration not stated) | 620 mg/kg | > 100 mg/kg | > 400 mg/kg
OCC(O)c1nnc2n1-c1ccc(Cl)cc1C(c1ccccc1)=NC2 (configuration not stated) | 3.8 mg/kg | 20 mg/kg | 100 mg/kg
OCC(O)c1nnc2n1-c1ccc(Cl)cc1C(c1ccccc1F)=NC2 (configuration not stated) | 1.5 mg/kg | 5 mg/kg | 200 mg/kg
C=Cc1nnc2n1-c1ccc(Cl)cc1C(c1ccccc1Cl)=NC2 | 4.2 mg/kg | 6.25 mg/kg | 150 mg/kg
C=Cc1nnc2n1-c1ccc(Cl)cc1C(c1ccccc1F)=NC2 | 1.3 mg/kg | 2.5 mg/kg | 150 mg/kg
CCOC(=O)NN(/C=C/c1nnc2n1-c1ccc(Cl)cc1C(c1ccccc1Cl)=NC2)C(=O)OCC | > 800 mg/kg | > 100 mg/kg | > 400 mg/kg
NNC(=O)c1nnc2n1-c1ccc(Cl)cc1C(c1ccccc1)=NC2 | 2.8 mg/kg | 50 mg/kg | 500 mg/kg
CN(C)CCNC(=O)c1nnc2n1-c1ccc(Cl)cc1C(c1ccccc1)=NC2 | 50 mg/kg | 100 mg/kg | 300 mg/kg
Cc1nnc2n1-c1ccc(Cl)cc1C(c1ccccc1)=[N+]([O-])C2 | 3.35 mg/kg | 100 mg/kg | > 400 mg/kg
Cc1nnc2n1-c1ccc(Cl)cc1C(c1ccccc1)=NC2 [ALPRAZOLAM] | 0.3 mg/kg | 2.5 mg/kg | 2 mg/kg
CNC1=Nc2ccc(Cl)cc2C(c2ccccc2)=[N+]([O-])C1 [CHLORDIAZEPOXIDE] | 8 mg/kg | 40 mg/kg | 100 mg/kg
CN1C(=O)CN=C(c2ccccc2)c2cc(Cl)ccc21 [DIAZEPAM] | 1.4 mg/kg | 10 mg/kg | 25 mg/kg
Clc1ccc2c(c1)C(c1ccccc1)=NCc1nncn1-2 [ESTAZOLAM] | 1.1 mg/kg | 0.5 mg/kg | > 400 mg/kg
